In the NIST ThermoML archive (doi:10.1021/je050386z):
Numbers after ± are expanded uncertainties.

Conditions: 101.33 kPa, Liquid
[1] = 283.15 K, Vibrating tube method
[2] = 298.15 K, Vibrating tube method
[3] = 323.15 K, Vibrating tube method
[4] = 348.15 K, Vibrating tube method

| SMILES | mass density [1] | mass density [2] | mass density [3] | mass density [4] | further results |
| --- | --- | --- | --- | --- | --- |
| CCCCCCCCCCCCn1cc[n+](C)c1.O=S(=O)([O-])C(F)(F)C(F)F | – | – | – | – | mass density (301.35 K, Pycnometric method): 1136 ± 4 kg/m3 |
| CCCCn1cc[n+](C)c1.N#C[S-] [1-butyl-3-methylimidazolium thiocyanate] | – | – | – | – | mass density (298.65 K, Pycnometric method): 1067 ± 3 kg/m3 |
| CCCCn1cc[n+](C)c1.COS(=O)(=O)[O-] [1-butyl-3-methylimidazolium methyl sulfate] | – | – | – | – | mass density (298.15 K, Pycnometric method): 1214 ± 3 kg/m3 |
| CCCCCCCn1cc[n+](C)c1.O=S(=O)([O-])C(F)(F)C(F)F | – | – | – | – | mass density (301.15 K, Pycnometric method): 1274 ± 4 kg/m3 |
| CCCC[n+]1ccn(C)c1.O=S(=O)([O-])C(F)(F)C(F)C(F)(F)F (centres undefined) | 1422 ± 4 kg/m3 | 1409 ± 4 kg/m3 | 1385 ± 4 kg/m3 | 1364 ± 4 kg/m3 | – |
| CC(=O)[O-].CCCCn1cc[n+](C)c1 [1-butyl-3-methylimidazolium acetate] | – | – | – | – | mass density (298.15 K, Pycnometric method): 1053 ± 3 kg/m3 |
| CCCn1cc[n+](C)c1C.O=S(=O)([C-](S(=O)(=O)C(F)(F)F)S(=O)(=O)C(F)(F)F)C(F)(F)F | 1612 ± 3 kg/m3 | 1597 ± 3 kg/m3 | 1582 ± 3 kg/m3 | 1567 ± 3 kg/m3 | – |
| CCCCn1cc[n+](C)c1.O=S(=O)([O-])C(F)(F)C(F)OC(F)(F)C(F)(F)F (centres undefined) | 1439 ± 4 kg/m3 | 1423 ± 4 kg/m3 | 1397 ± 4 kg/m3 | 1372 ± 4 kg/m3 | – |
| CCC[n+]1ccn(C)c1C.O=S(=O)([N-]S(=O)(=O)C(F)(F)F)C(F)(F)F | – | – | – | – | mass density (299.15 K, Pycnometric method): 1481 ± 3 kg/m3 |
| CCCCn1cc[n+](C)c1.O=S(=O)([O-])C(F)(F)C(F)OC(F)(F)F (centres undefined) | 1409 ± 4 kg/m3 | 1393 ± 4 kg/m3 | 1369 ± 4 kg/m3 | 1345 ± 4 kg/m3 | – |
| CCn1cc[n+](C)c1.O=S(=O)([N-]S(=O)(=O)C(F)(F)C(F)(F)F)C(F)(F)C(F)(F)F | 1608 ± 3 kg/m3 | 1590 ± 3 kg/m3 | 1562 ± 3 kg/m3 | 1534 ± 3 kg/m3 | – |
| CCCCn1cc[n+](C)c1.O=S(=O)([O-])C(F)(F)C(F)F | – | – | – | – | mass density (301.45 K, Pycnometric method): 1324 ± 4 kg/m3 |
| CCCCn1cc[n+](C)c1.O=S(=O)([O-])C(F)(F)C(F)(F)OC(F)C(F)(F)F (centres undefined) | 1464 ± 4 kg/m3 | 1449 ± 4 kg/m3 | 1425 ± 4 kg/m3 | 1401 ± 4 kg/m3 | – |
| CCn1cc[n+](C)c1.O=S(=O)([N-]S(=O)(=O)C(F)(F)F)C(F)(F)F | 1534 ± 5 kg/m3 | 1517 ± 5 kg/m3 | 1492 ± 4 kg/m3 | 1467 ± 4 kg/m3 | – |
| CCn1cc[n+](C)c1.O=S(=O)([O-])C(F)(F)C(F)F | – | – | – | – | mass density (301.45 K, Pycnometric method): 1502 ± 5 kg/m3 |
| CCCC[n+]1cccc(C)c1.O=S(=O)([N-]S(=O)(=O)C(F)(F)F)C(F)(F)F | 1428 ± 3 kg/m3 | 1412 ± 3 kg/m3 | 1389 ± 3 kg/m3 | 1367 ± 3 kg/m3 | – |
| CCC[n+]1cccc(C)c1.O=S(=O)([N-]S(=O)(=O)C(F)(F)F)C(F)(F)F | 1460 ± 3 kg/m3 | 1444 ± 3 kg/m3 | 1420 ± 3 kg/m3 | 1397 ± 3 kg/m3 | – |
